Assay results from patent US11289729B2, “Redox flow batteries and compounds for battery application” (THE TRUSTEES OF COLUMBIA UNIVERSITY IN THE CITY OF NEW YORK, priority 2017, dated 2022).
Several values for one entry are separate records, joined by “and”; a condition that tells them apart may be missing. Identical values can stand only once. One block for each substance: values may come before it.

Columns and labels:
[1] = Stability of charged spiro and cyclopropenium compounds on storage; format: physicochemical
Text: The state of charge on discharge was 87%. […] Additionally, the calendar fade of the molecule was improved over certain previously reported high voltage organic radicals.

[2] = Crossover of active molecules through the cellulose dialysis membrane in an H-cell (UV-Vis); format: physicochemical
Method: The present example tested whether the membrane is amenable to large temperature excursions and to higher-voltage second generation compounds. The membrane was exposed to high (110° C.) and low (−20° C.) temperatures, as well as to strong reducing and oxidizing conditions, after which, dialysis was performed. Details are disclosed below. For example, the membrane was soaked in a solution of sodium naphthalenide (approximately −3.0 V vs Fc^0/+) and subsequently assembled an H-cell with this membrane. One chamber of the H-cell was filled with [PDI][TFSI]2 in acetonitrile (FIG. 1), while the other contained pure acetonitrile. [PDI][TFSI]2 was used for crossover experiments due to its smaller sized and strong absorption. […] Moreover, typical aqueous cells would not be operable at these extreme temperatures.
The present example next quantitatively assessed the impact of these treatments on the membrane's performance under battery operating conditions. […] To quantify the amount of crossover, UV-Vis spectra of the [Fc4] chamber was taken. […] Additionally, the low concentration cell above (FIG. 7D) was dismantled after cycling and checked for crossover. […] The key finding is that the cellulose based membrane is effective in organic solvents over long periods of time, stable to a >3 V voltage window, and stable to temperatures outside the range available for aqueous systems.
The membranes were soaked in water for 1 h before treatment. For high temperature, the membrane was rinsed with propylene carbonate, placed in propylene carbonate and heated to 110° C. overnight in a vial. For low temperature, the membrane was rinsed with acetonitrile and placed in acetonitrile in a vial in a −20° C. freezer overnight. For oxidizing conditions, the membrane was rinsed with acetonitrile and stirred in nitrosonium tetrafluoroborate (NOBF4, 0.1 M in acetonitrile) for 4 h. For reducing conditions, the membrane was rinsed with anhydrous diglyme, placed in anhydrous diglyme, and sparged for 3 h before being brought into a glove box. It was rinsed in a fresh solution of diglyme before being added to a solution of sodium naphthalenide (0.1 M in diglyme) in a glove box for 1 h. The sodium naphthalenide was a persistent dark green the entire time indicating no quenching of the reagent. A control where the membrane was only soaked in water and rinsed with acetonitrile was also performed.
Following these conditions, [PDI][TFSI]2 (20 mg) and LiPF6 (60 mg) in acetonitrile were added to one side of the H-cell. […] The blank side was colorless for all conditions except nitrosonium tetrafluoroborate, where a minimal amount of fluorescence could be seen. The control H-cell was monitored for crossover for a further 12 days, at which point the absorbance was measured by UV-visible spectroscopy and the amount determined using the molar absorptivity of [PDI][TFSI]2 (0.05% over 12 days, FIG. 10 and FIG. 11).
After these qualitative experiments, membranes treated to the same four conditions as mentioned above were brought into the glovebox in degassed anhydrous solvent and used for cycling experiments with 19 mg [PDI][TFSI]2 and 9 mg [Fc4] in 0.5M LiPF6 (FIG. 9C). The cells were run at a 1 C current (0.7 mA) for 12 cycles. At the end of the experiment, the UV-visible spectrum was taken of the [Fc4] side. […]

[3] = Solubility / maximum concentration of the electrolytes in organic solvent
[4] = acetonitrile vs pure acetonitrile, stirring overnight
[5] = cycling H-cell, 1 C, 12 cycles, 0.5 M LiPF6, UV-Vis of [Fc4] side

persistence of charged state ([1]; 3 months out of glovebox): still charged
Substance: dimethylpiperidine cyclopropenium

Substance: perylene diimide trifluoromethane sulfonimide [[PDI][TFSI]2]
visible crossover, NOBF4-treated membrane [2, 4]: slight fluorescence from crossover
visible crossover, sodium naphthalenide-treated membrane [2, 4]: no detectable crossover
crossover, control membrane ([2]; control H-cell, acetonitrile with LiPF6, over 12 days): 0.05%
crossover, NOBF4-treated (oxidizing) membrane [2, 5]: 1.25%
crossover, cold (−20° C.) treated membrane [2, 5]: < 0.05% and 0.032%
crossover, hot (110° C.) treated membrane [2, 5]: < 0.05% and 0.028%
crossover, sodium naphthalenide-treated (reducing) membrane [2, 5]: < 0.05% and 0.038%
crossover after long-term cycling ([2]; low concentration cell dismantled after >30 days and >250 cycles): 0.2%
concentration accessible in acetonitrile [3]: 1 M electron

degradation in charged state (1H NMR) ([1]; 1 week of charge): No degradation
Substance: spiro-ethylphthalimide [spirophthalimide]
